From patent publication EP0254663B1, “2-(2-Phosphonoxyphenyl-Carbonyloxy)benzoic acid, salts thereof, a process for the preparation thereof” (SUEROS, ANTIBIOTICOS Y LABORATORIO DE VACUNOTERAPIA, …, priority 1986, dated 1988)

Legend:
adjuvant arthritis = adjuvant arthritis inhibition; assay type: in vivo; conditions: 100-200 mg/kg/day, for 14 days
Experimental: At doses ranging from 100-200 mg/kg/day, for 14 days, PSS inhibits adjuvant arthritis by 40 - 50 %. At equal dose levels, inhibition by ASA is 0 - 39 %.

[1] = test system: serum reducing activity (SH group levels); experiment: correction of depressed serum reducing activity (SH group levels) in adjuvant arthritis; assay type: in vivo; conditions: 200 mg/kg/day
Experimental: In adjuvant arthritis, there is observed a depression of the serum reducing activity (SH group levels). PSS affords a 100 % correction at 200 mg/kg/day, while at equal dose levels ASA only affords a 60 % correction.

[2] = test system: carrageenin induced rat paw oedema; experiment: carrageenin induced rat paw oedema; assay type: in vivo; conditions: 200 mg/kg
Experimental: PSS has a 49 % anti-inflammatory activity at 200 mg/kg on carrageenin induced rat paw oedema.

[3] = test system: pain induced in mouse by i.p. injection of acetic acid; experiment: pain induced in mouse by i.p. injection of acetic acid; assay type: in vivo; conditions: i.p. acetic acid 30 minutes after oral administration
Experimental: The inhibitory dose30 levels (ID-30) for pain induced in mouse by i.p. injection of acetic acid 30 minutes after oral administration were: 46.3, 98.15, 40 and 129.6 for PSS, PS (phosphosal), ASA and SS, respectively.

[4] = test system: motor activity inhibition produced by inflammatory pain; experiment: correction of motor activity inhibition produced by inflammatory pain; assay type: in vivo; conditions: 200 mg/kg
Experimental: PSS and ASA afford a 90 % correction of the motor activity inhibition produced by inflammatory pain at 200 mg/kg.

ulcerogenic activity = conditions: in vivo
From the text: The ulcerogenic activity of PSS (ulcerogenic index - 3.16) is lower than that of ASA (UI = 10.54) or indo- methacin (Ul - 25.28).

acute oral toxicity = conditions: in vivo, read-out: Acute toxicity (LDso)
[5] = test system: death by respiratory distress caused by i.v. injection of arachidonic acid; experiment: protection from death by respiratory distress caused by i.v. arachidonic acid; assay type: in vivo
Experimental: ASA provides 72 % protection at 50 mg/kg.

[6] = salicylic acid levels after continued administration for 14 days; assay type: in vivo; conditions: continued administration at equal dose levels for 14 days
[7] = gastrointestinal hemorrhages, blood in faeces (radioisotope method); assay type: in vivo; conditions: 400 mg/kg, faeces excreted during the following 4 days
beer yeast induced fever = beer yeast induced fever in the rat; assay type: in vivo

| SMILES | inhibition of adjuvant arthritis (adjuvant arthritis) | correction of depression of the serum reducing activity (SH group levels) [1] [%] | anti-inflammatory activity [2] [%] | inhibitory dose30 levels (ID-30) [3] | correction of the motor activity inhibition produced by inflammatory pain [4] [%] | ulcerogenic index (ulcerogenic activity) | LD50 (acute oral toxicity) [mg/kg] | protection from death by respiratory distress ([5]; 50 mg/kg) [%] | salicylic acid levels [6] | Gastrointestinal hemorrhages, measured as µl blood in faeces [7] | protection from death by respiratory distress ([5]; 100 mg/kg) | antipyretic activity (beer yeast induced fever) |
| --- | --- | --- | --- | --- | --- | --- | --- | --- | --- | --- | --- | --- |
| CC(=O)Oc1ccccc1C(=O)O [ASA, acetyl salycilic acid] | 0 - 39% | 60 | 61 | 40 | 90 | 10.54 | 1100 | 72 |  |  |  |  |
| O=C(O)c1ccccc1OP(=O)(O)O [PS, salicylic acid phosphonate] |  |  |  | 98.15 | 65 |  |  |  |  |  |  |  |
| O=C(O)c1ccccc1OC(=O)c1ccccc1OP(=O)(O)O [PSS, 2-(2-phosphonoxyphenylcarbonyloxy) benzoic acid] | 40 - 50% | 100 | 49 | 46.3 | 90 | 3.16 | 1590 |  | much higher salicylic acid levels for PSS than for ASA | significantly lower than those caused by ASA | does not protect | superior to ASA and inferior to paracetamol |
| O=C(Oc1ccccc1C(=O)O)c1ccccc1O [SS, 2-(2-hydroxyphenylcarbonyloxy) benzoic acid] |  |  | 24 | 129.6 | 32.6 |  |  |  |  |  |  |  |
| COc1ccc2c(c1)c(CC(=O)O)c(C)n2C(=O)c1ccc(Cl)cc1 [indo- methacin] |  |  |  |  |  | 25.28 |  |  |  |  |  |  |
